# Measured values: ChEMBL document CHEMBL1201862, “PubChem BioAssay data set” (2004)
# The source made the active and inactive calls.
# How the values were obtained:
# [1] = biological target: Peroxisome proliferator-activated receptor gamma/Nuclear receptor coactivator 2 (Homo sapiens, UniProt P37231); test: (§1) TR-FRET dose response biochemical High Throughput Screening assay for agonists of the steroid receptor coactivator 2 (SRC-2) recruitment by the peroxisome proliferator-activated receptor gamma (PPAR gamma): non-selective agonists. [Related pubchem assays: 1297, 1032 ]; assay type: functional
# [2] = biological target: Peroxisome proliferator-activated receptor gamma/Nuclear receptor coactivator 1 (Homo sapiens, UniProt P37231); test: as §1, with “1 (SRC-1)” for “2 (SRC-2)”, “assays (depositor defined):AID1300, AID1808, AID504735, AID631]” for “assays: 1297, 1032 ]”; assay type: protein assay
# Chain of Peroxisome proliferator-activated receptor gamma/Nuclear receptor coactivator 1 (P37231 whole entry): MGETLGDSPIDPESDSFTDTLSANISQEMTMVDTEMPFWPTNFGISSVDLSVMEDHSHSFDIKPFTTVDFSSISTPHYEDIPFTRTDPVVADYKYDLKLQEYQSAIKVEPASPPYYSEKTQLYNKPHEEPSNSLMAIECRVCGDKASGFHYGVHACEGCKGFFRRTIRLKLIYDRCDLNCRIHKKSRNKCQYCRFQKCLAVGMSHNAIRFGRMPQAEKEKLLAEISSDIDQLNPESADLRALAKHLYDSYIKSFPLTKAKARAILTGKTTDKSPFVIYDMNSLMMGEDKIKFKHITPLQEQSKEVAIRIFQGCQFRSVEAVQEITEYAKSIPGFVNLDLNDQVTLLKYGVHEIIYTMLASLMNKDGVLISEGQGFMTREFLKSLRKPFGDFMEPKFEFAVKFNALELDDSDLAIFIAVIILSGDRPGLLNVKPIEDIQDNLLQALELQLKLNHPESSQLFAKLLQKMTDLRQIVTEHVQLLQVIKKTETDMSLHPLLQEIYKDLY
# Chain of Peroxisome proliferator-activated receptor gamma/Nuclear receptor coactivator 1 (Q15788 whole entry, further chain): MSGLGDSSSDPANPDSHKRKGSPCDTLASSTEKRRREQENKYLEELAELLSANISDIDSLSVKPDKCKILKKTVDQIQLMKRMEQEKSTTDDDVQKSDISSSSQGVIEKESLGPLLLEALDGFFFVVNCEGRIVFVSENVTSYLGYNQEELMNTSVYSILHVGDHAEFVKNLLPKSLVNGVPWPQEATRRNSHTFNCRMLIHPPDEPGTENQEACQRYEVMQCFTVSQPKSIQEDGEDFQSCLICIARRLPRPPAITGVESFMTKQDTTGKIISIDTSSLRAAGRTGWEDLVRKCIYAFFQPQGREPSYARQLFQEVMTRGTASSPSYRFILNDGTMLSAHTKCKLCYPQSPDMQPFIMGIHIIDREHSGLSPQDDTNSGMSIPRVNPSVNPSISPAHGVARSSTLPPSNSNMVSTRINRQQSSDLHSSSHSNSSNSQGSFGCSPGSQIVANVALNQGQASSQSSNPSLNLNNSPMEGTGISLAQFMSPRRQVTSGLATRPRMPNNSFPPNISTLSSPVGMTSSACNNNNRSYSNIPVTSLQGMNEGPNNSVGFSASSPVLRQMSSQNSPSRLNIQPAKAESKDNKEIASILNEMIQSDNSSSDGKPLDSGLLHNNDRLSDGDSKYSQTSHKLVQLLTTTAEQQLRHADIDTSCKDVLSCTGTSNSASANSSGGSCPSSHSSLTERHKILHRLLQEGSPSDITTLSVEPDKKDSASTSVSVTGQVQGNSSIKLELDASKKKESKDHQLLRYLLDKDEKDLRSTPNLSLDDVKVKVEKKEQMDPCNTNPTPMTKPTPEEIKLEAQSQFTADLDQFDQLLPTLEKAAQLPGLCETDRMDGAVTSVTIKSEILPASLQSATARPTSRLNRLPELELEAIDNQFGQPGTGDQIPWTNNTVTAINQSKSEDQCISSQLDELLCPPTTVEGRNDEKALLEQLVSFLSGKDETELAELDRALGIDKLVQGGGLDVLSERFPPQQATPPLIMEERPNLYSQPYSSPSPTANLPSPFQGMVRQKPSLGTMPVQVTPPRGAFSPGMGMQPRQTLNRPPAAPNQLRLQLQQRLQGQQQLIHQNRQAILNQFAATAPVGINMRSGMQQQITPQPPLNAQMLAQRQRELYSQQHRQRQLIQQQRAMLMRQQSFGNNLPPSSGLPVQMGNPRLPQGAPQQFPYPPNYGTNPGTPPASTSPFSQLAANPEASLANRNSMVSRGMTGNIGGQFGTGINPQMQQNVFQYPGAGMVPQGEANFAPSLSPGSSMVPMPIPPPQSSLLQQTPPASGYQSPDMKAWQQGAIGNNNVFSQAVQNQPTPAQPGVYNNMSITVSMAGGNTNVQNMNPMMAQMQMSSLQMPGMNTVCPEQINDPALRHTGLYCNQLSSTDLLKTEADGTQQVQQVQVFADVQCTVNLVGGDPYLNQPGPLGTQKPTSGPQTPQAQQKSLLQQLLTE
# [3] = biological target: Peroxisome proliferator-activated receptor gamma/Nuclear receptor coactivator 3 (Homo sapiens, UniProt P37231); test: as §1, with “3 (SRC-3)” for “2 (SRC-2)”, “1301 (Confirmation screen.), 1048 (Primary screen.)]” for “1297, 1032 ]”; assay type: functional
# Chain of Peroxisome proliferator-activated receptor gamma/Nuclear receptor coactivator 3 (P37231 whole entry): as the sequence (P37231 whole entry) above
# Chain of Peroxisome proliferator-activated receptor gamma/Nuclear receptor coactivator 3 (Q9Y6Q9 whole entry, further chain): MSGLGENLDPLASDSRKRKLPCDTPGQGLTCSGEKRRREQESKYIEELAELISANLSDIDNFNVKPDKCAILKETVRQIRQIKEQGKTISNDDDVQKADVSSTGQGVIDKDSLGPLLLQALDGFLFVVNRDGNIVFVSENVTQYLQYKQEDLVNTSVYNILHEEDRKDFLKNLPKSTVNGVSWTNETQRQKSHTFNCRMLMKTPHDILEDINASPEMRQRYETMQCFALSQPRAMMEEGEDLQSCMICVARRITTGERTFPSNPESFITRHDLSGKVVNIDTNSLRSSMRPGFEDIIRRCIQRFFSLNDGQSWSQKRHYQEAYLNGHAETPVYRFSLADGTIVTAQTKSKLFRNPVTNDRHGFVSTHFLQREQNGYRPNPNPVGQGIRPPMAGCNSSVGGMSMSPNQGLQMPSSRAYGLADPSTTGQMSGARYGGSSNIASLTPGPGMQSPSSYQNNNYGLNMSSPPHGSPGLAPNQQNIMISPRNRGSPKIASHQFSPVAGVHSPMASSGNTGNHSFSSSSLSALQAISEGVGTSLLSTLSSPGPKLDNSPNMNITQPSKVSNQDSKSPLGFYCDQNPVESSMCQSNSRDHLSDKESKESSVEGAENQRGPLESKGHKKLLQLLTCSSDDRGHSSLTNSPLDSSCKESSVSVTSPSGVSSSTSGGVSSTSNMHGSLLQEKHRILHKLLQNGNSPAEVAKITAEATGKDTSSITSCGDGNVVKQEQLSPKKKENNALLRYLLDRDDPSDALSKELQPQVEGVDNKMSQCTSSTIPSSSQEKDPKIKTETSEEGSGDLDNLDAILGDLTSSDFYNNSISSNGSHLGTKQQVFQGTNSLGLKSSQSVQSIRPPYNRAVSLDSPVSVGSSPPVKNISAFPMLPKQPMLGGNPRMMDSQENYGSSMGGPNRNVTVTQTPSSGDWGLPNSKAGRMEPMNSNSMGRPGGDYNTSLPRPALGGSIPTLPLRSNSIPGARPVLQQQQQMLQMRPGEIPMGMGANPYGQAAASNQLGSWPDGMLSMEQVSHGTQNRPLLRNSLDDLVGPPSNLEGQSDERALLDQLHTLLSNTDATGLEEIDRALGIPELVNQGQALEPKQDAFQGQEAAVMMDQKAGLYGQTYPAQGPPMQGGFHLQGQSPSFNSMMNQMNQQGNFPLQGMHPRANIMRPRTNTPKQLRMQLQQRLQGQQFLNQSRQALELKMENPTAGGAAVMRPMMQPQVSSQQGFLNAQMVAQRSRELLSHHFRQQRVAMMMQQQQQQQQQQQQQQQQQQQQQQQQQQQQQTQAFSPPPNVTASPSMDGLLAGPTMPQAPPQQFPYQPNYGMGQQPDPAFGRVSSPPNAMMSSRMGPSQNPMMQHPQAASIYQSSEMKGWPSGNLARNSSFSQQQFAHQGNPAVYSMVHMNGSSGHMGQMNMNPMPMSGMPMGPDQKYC
# cells = assay type: functional
# [4] = biological target: Voltage-dependent T-type calcium channel subunit alpha-1H (Homo sapiens, UniProt O95180); assay type: functional;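 note: channel activity triggered by adding a high calcium stimulation buffer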
# [5] = biological target: T1, Replicative DNA helicase DnaB (Mycobacterium tuberculosis, UniProt P9WMR3); test: DnaB intein splicing inhibitors, dose response, biochemical, cell-free fluorescence (AID 449749); assay type: functional
# T1 sequence (P9WMR3 whole entry): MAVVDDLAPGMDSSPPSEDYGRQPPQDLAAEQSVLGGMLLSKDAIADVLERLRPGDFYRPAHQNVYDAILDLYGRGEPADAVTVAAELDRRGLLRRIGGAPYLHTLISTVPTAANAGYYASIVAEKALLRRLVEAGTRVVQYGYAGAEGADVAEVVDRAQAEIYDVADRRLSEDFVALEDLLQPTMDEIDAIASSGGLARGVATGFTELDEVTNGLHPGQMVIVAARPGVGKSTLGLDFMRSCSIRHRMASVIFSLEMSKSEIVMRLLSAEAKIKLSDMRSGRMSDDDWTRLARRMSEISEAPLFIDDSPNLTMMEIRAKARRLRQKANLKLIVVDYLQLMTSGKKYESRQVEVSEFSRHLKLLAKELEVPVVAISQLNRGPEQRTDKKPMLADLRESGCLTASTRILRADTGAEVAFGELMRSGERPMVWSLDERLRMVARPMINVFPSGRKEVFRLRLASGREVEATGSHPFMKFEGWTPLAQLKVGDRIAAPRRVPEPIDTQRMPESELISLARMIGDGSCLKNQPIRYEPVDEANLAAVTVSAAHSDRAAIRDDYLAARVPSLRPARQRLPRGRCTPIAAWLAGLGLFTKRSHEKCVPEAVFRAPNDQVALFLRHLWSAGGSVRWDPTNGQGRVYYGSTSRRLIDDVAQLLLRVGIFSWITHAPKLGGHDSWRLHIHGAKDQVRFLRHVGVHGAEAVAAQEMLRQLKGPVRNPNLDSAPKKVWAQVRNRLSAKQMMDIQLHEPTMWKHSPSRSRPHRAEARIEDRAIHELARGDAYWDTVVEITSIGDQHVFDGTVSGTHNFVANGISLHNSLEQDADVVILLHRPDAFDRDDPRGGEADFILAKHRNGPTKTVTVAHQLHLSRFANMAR
# Protein RecA = biological target: T2, Protein RecA (Mycobacterium tuberculosis, UniProt P9WHJ3); test: Fluorescence Cell-Free Homogeneous Dose Retest to Identify Inhibitors of RecA-Intein Splicing Activity. [Related pubchem assays (depositor defined):AID2097, AID2223, AID489010, AID492950]; assay type: functional
# T2 sequence (P9WHJ3 whole entry): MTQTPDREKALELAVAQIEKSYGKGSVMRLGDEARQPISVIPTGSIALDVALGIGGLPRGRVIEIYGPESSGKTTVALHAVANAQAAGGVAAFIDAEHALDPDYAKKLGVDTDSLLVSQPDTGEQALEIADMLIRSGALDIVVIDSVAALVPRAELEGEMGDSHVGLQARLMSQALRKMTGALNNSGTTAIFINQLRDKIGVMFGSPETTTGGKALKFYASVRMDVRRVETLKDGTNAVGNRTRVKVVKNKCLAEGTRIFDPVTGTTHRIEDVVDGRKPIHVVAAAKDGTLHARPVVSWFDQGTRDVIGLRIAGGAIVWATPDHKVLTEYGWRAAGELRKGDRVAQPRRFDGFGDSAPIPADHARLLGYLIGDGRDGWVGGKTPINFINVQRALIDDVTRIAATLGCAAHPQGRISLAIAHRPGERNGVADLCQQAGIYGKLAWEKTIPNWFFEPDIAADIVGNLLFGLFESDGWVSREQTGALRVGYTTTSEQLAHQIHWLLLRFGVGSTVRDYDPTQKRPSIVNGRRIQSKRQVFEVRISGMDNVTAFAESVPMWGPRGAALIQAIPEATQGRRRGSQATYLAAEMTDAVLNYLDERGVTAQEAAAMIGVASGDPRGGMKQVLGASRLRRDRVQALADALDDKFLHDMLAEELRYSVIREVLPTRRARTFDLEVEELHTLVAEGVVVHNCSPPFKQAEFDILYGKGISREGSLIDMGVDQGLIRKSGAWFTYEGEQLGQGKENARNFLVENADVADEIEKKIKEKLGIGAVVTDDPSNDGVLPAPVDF
# [6] = biological target: DNA dC->dU-editing enzyme APOBEC-3G (Homo sapiens, UniProt Q9HC16); assay type: functional;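 note: Dose-response counterscreen measuring inhibition of APOBEC3G DNA deaminase activity, run while confirming APOBEC3A inhibitors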
# Chain of DNA dC->dU-editing enzyme APOBEC-3G (Q9HC16 whole entry): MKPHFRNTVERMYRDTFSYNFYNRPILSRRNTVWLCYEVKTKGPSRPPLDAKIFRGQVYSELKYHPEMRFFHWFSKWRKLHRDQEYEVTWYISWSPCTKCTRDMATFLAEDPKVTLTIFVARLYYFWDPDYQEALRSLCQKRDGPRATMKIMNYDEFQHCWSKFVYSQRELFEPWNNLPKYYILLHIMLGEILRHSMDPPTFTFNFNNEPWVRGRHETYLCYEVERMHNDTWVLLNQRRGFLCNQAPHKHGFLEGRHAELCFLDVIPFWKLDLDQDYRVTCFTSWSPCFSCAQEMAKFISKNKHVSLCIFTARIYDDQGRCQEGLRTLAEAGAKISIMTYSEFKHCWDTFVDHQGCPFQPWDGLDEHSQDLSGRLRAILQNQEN
# [7] = biological target: DNA dC->dU-editing enzyme APOBEC-3A (Homo sapiens, UniProt P31941); test: Dose Response confirmation of small molecule APOBEC3A DNA Deaminase Inhibitors via a fluorescence-based single-stranded DNA deaminase assay. [Related pubchem assays (depositor defined):AID493011, AID493024]; assay type: functional
# Chain of DNA dC->dU-editing enzyme APOBEC-3A (P31941 whole entry): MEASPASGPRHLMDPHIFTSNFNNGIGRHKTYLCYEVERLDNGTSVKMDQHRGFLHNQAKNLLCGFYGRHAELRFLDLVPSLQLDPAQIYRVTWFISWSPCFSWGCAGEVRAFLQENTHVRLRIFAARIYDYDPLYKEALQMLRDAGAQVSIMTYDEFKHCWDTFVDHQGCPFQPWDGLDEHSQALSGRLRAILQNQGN
# Streptokinase A = biological target: T3, Streptokinase A (Streptococcus pyogenes serotype M1, UniProt P10520); test: S. pyogenes streptokinase expression inhibitors, potency, dose response, plasminogen activation absorbance, OD405 (AID 1914); assay type: functional, Streptococcus pyogenes M1 GAS;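 note: secreted streptokinase activity via plasminogen activation per viability signal from cell pellet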
# T3 sequence (P10520 whole entry): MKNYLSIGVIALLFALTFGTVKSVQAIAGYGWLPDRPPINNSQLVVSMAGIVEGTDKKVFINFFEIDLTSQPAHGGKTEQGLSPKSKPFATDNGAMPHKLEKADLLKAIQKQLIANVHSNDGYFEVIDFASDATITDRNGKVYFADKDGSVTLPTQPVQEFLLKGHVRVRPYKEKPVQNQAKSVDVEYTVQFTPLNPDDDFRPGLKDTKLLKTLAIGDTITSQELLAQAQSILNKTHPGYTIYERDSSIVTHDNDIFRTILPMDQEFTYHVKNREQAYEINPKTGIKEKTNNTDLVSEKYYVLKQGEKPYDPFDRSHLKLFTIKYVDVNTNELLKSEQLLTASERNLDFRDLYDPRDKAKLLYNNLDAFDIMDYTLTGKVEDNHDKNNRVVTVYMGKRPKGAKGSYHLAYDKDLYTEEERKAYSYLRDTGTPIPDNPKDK
# Streptococcus = test: Group A Streptococcus viability loss, dose response, counter-screen for streptokinase expression inhibitor project, luminescence, BacTiterGlo (AID 1915); assay type: functional, organism-based;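 note: potency for reduction of bacterial viability or growth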
# [8] = system: Streptococcus sp. 'group A'; test: growth inhibition of control SK(-) GAS strain, dose response, counter-screen for streptokinase expression inhibitor project, luminescence, kanamycin, BacTiterGlo, confirmation (AID 1900); assay type: functional, organism-based
# Vero = test: cells; assay type: functional; settings: Chlorocebus sabaeus
# [9] = inhibitors of clade B AD8 Env fusion, dose response, cell-based, cherry-pick (AID 652062); assay type: functional;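 note: luciferase signal from cell-cell fusion driven by HIV-1 clade B AD8 Env; potency is for inhibitors of fusion seen as a drop in luminescence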
# [10] = inhibitors of HIV Env-driven cell fusion, dose response, cherry-pick (AID 652057); assay type: functional, cell-based
# [11] = ZM109 Env clade C HIV-1 fusion inhibitors, dose response, HeLa effector, CEM target cells, luciferase, cherry-pick (AID 652058); assay type: functional, cell-based
# [12] = off-target signal loss in HeLa-CEM21 co-culture – HeLa F-luc CTL cells, cherry-picked, counter-screen for HIV-1 Env fusion inhibitor project, dose response (AID 652040); assay type: functional, cell-based;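 note: potency for signal decrease marking cytotoxic or nonspecific inhibition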
structure (smiles),measurement,setting,value
CSC1=NP(=S)(SC)N(C)c2nc3n(c21)CCC3 (centres undefined),EC50,[1],> 79.4 µM (not active)
same,EC50,[2],> 79.4 µM (inactive)
same,EC50,[3],> 79.4 µM (not active)
CC(/C=C(\O)c1ccncc1)=N\c1ccccc1O,IC50,cells,3.1 µM (active)
same,EC50,[4],3.26 µM (active)
COc1cccc(NC(=O)CSc2c3c(nc4ccccc24)CCCC3)c1,AC50,[5],35.9 µM (active)
same,EC50,[1],66.1 µM (not active)
same,EC50,Protein RecA,3.36 µM (active)
same,EC50,[2],> 79.4 µM (inactive)
same,EC50,[3],> 79.4 µM (not active)
CC(=O)c1ccc(S(=O)(=O)N2Cc3ccccc3CC2C(=O)O)cc1 (centres undefined),IC50,[6],43.7 µM (active)
same,IC50,[7],14 µM (active)
O=C(CN1CCc2ccccc2C1)Nc1ccccc1N1CCCCCC1,EC50,Streptokinase A,13 µM (active)
same,EC50,[4],8.39 µM (active)
same,EC50,Streptococcus,13.3 µM (active)
same,EC50,[8],6.54 µM (active)
COc1cc2cc(c1Cl)N(C)C(=O)CC(OC(=O)C(C)N(C)C(C)=O)C1(C)OC1C(C)C1CC(O)(NC(=O)O1)C(OC)C=CC=C(C)C2 (centres undefined),CC50,Vero,< 0.05 µM (active)
O=C(CSc1nnnn1-c1ccccc1)N1CCc2ccccc21,IC50,[6],4.32 µM (active)
same,IC50,[7],6.17 µM (active)
Cc1ccc(N2C(=O)N3[C@H](c4cccc(C)c4)[C@@H]4C(=O)N(Cc5ccccc5)C(=O)[C@@H]4[C@]3(C)C2=O)cc1,AC50,[9],2.33 µM (active)
same,AC50,[10],3.36 µM (active)
same,AC50,[11],1.2 µM (active)
same,AC50,[12],3.88 µM (active)
CN1CCN(c2ccc(Cl)cc2NC(=O)CC2OC(=O)c3ccccc32)CC1 (centres undefined),IC50,[6],2.9 µM (active)
same,IC50,[7],3.24 µM (active)
CCn1c(=O)cc(SCC(=O)Nc2ccc(OC)c(OC)c2)c2ccccc21,EC50,[1],53.8 µM (not active)
same,EC50,[2],> 79.4 µM (inactive)
same,EC50,[3],> 79.4 µM (not active)
O=C(CCC1N=C2c3ccccc3N=C(SCc3ccccc3Cl)N2C1=O)NCc1ccco1 (centres undefined),EC50,[4],14 µM (active)
